Data published in patent US8487093B2, “β-lactamase inhibitors” (Merck Sharp & Dohme Corp., priority 2008, dated 2013).
Like-named read-outs stand apart in the source and are kept apart here.

Assays:
[1] = system: CL 6569 (Klebsiella pneumoniae; KPC-2); assay: Synergy assay (checkerboard) with imipenem against K. pneumoniae strain CL6569; conditions: for 16X Synergy CL6569: BLI concentration reducing the MIC of imipenem by a factor of 16, K. pneumoniae strain CL6569; for 32X Synergy CL6569: BLI concentration reducing the MIC of imipenem by a factor of 32, K. pneumoniae strain CL6569; for 64X Synergy CL6569: BLI concentration reducing the MIC of imipenem by a factor of 64, K. pneumoniae strain CL6569
Description: The assay determines the concentration of a β-lactamase inhibitor required to reduce the MIC of a β-lactam antibiotic by one-half, one-quarter, one-eighth, one-sixteenth and one-thirty-second against strains of bacteria normally resistant to the antibiotic in question. This is accomplished by titrating the BLI in a serial dilution across a microtiter plate while at the same time titrating the antibiotic in a serial dilution down the microtiter plate and then inoculating the plate with the bacterial strain in question and allowing the bacteria to grow up overnight. Each well in this microplate checkerboard contains a different combination of concentrations of the inhibitor and the antibiotic allowing a full determination of any synergy between the two.
Plates are left at 37° C. for about 20 hours and scored for growth by eye.
Synergy may be expressed as a ratio of the minimum inhibitory concentration (MIC) of an antibiotic tested in the absence of a β-lactamase inhibitor to the MIC of the same antibiotic tested in the presence of the β-lactamase inhibitor. […] Alternatively, the synergy effect may be expressed as a factor, again, utilizing a concentration of the BLI to lower the MIC of the antibiotic.

[2] = target: AmpC (P. aeruginosa) (Pseudomonas aeruginosa (strain ATCC 15692 / DSM 22644 / CIP 104116 / JCM 14847 / LMG 12228 / 1C / PRS 101 / PAO1), UniProt P24735); assay: biochemical
Chain of AmpC (P. aeruginosa) (P24735 27-397): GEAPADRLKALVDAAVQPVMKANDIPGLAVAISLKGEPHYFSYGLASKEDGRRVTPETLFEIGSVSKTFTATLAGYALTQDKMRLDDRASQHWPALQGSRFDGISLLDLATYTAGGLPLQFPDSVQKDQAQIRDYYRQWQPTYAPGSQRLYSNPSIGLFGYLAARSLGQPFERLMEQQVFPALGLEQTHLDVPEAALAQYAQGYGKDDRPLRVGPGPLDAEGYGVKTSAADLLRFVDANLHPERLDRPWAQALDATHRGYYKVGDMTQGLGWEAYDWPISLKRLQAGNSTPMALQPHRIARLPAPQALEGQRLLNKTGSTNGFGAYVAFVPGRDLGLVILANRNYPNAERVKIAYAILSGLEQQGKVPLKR
Experimental: The Class C enzyme activities were measured in the presence of the test inhibitor in spectrophotometric assay against the commercially available substrate, nitrocefin. The enzyme AmpC (P. aeruginosa.), and the substrate, were dissolved in 100 mM KH2PO4 buffer (pH 7). The buffer also contains 0.005% BSA. The test inhibitor was dissolved in DMSO and diluted 1:20 in the assay, resulting in a final concentration range of 50 μM to 0.0002 μM. In a 96-well microplate, the test inhibitor was incubated with the beta-lactamase enzyme for 40 minutes at ambient temperature, the substrate solution was added, and the incubation continued for another 40 minutes. […] The IC50 value was determined from semi logarithmic plots of enzyme inhibition versus inhibitor concentration, with a curve generated using a 4-parameter fit.

[3] = system: CL 5701 (Pseudomonas aeruginosa; Pa AmpC); assay: Synergy assay (checkerboard) with imipenem against P. aeruginosa strain CL5701; type: cell-based; conditions: for 2X Synergy CL5701: BLI concentration reducing the MIC of imipenem by a factor of 2, P. aeruginosa strain CL5701
[4] = target: KPC-2 (K. pneumoniae) (Klebsiella pneumoniae, UniProt Q9F663); assay: biochemical
Chain of KPC-2 (K. pneumoniae) (Q9F663 25-293 limits assumed): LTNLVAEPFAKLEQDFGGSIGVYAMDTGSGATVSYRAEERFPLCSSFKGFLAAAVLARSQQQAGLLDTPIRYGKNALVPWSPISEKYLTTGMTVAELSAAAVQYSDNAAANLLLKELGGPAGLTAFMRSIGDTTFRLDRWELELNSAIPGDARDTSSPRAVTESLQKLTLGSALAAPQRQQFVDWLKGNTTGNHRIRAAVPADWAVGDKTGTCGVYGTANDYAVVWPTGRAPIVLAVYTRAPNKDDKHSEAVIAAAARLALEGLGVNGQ

[5] = Table 2, read-out: K.p. KPC-2 IC50
[6] = Table 3, read-out: K.p. KPC-2 IC50
[7] = Table 2, read-out: P.a. AmpC IC50
[8] = Table 3, read-out: P.a. AmpC IC50
[9] = BLI concentration reducing the MIC of imipenem by a factor of 4, P. aeruginosa strain CL5701
[10] = BLI concentration reducing the MIC of imipenem by a factor of 8, P. aeruginosa strain CL5701

Row | Compound | 16X Synergy CL6569 [1] [µM] | 32X Synergy CL6569 [1] [µM] | 64X Synergy CL6569 [1] [µM] | IC50 [2] [nM] | 4X Synergy CL5701 [3] [µM] | 8X Synergy CL5701 [3] [µM] | 2X Synergy CL5701 [3] | IC50 [4, 5] [nM] | IC50 [4, 6] [nM] | IC50 [2, 7] [nM] | IC50 [2, 8] [nM] | 4X Synergy CL5701 [3, 9] | 8X Synergy CL5701 [3, 10] | IC50 ([4]; K.p. KPC-2 IC50, Table 2) [nM]
1 | O=C(Nc1ccncc1)[C@@H]1CC[C@@H]2CN1C(=O)N2OS(=O)(=O)O [Example 6, (2S,5R)-7-Oxo-N-pyridin-4-yl-6-(sulfooxy)-1,6-diazabicyclo[3.2.1]octane-2-carboxamide] | 50 | 50 | > 100 | 6 | 25 | 100 | 12.5 µM |  |  |  |  |  |  | 
2 | COc1cc(NC(=O)[C@@H]2CC[C@@H]3CN2C(=O)N3OS(=O)(=O)O)ccn1 [Example 7, (2S,5R)—N-(2-Methoxypyridin-4-yl)-7-oxo-6-(sulfooxy)-1,6-diazabicyclo[3.2.1]octane-2-carboxamide] | 25 | 50 | > 100 |  |  |  | 50 µM | 8 | 8 | 1.1 | 11 | 100 µM | > 100 µM | 
3 | O=C(N[C@@H]1CCNC1)[C@@H]1CC[C@@H]2CN1C(=O)N2OS(=O)(=O)O [Example 4, (2S,5R)-7-Oxo-N-[(3R)-pyrrolidin-3-yl]-6-(sulfooxy)-1,6-diazabicyclo[3.2.1]-octane-2-carboxamide] | 50 | 100 | 100 |  |  |  | 100/100/>100 μM |  |  | 29000 |  | 100/100/>100 μM | 100/100/>100 μM | 4400
4 | NCc1ccc(NC(=O)[C@@H]2CC[C@@H]3CN2C(=O)N3OS(=O)(=O)O)cc1 [Example 9, (2S,5R)—N-[4-(aminomethyl)phenyl]-7-oxo-6-(sulfooxy)-1,6-diazabicyclo[3.2.1]octane-2-carboxamide] | 6.25 | 6.25 | 12.5 |  |  |  | 0.78 µM | 72 |  | 20 |  | 3.12 µM | 6.25 µM | 
5 | O=C(N[C@H]1CCCNCC1)[C@@H]1CC[C@@H]2CN1C(=O)N2OS(=O)(=O)O [Example 2, (2S,5R)—N-[(4S)-Azepan-4-yl]-7-oxo-6-(sulfooxy)-1,6-diazabicyclo[3.2.1]-octane-2-carboxamide] | 6.25 | 12.5 | 25 | 69 |  |  | 3.12 µM | 245 | 245 |  |  | 6.25 µM | 6.25 µM | 
6 | CN(C)c1cc(NC(=O)[C@@H]2CC[C@@H]3CN2C(=O)N3OS(=O)(=O)O)ccn1 [Example 8, (2S,5R)—N-[2-(Dimethylamino)pyridin-4-yl]-7-oxo-6-(sulfooxy)-1,6-diazabicyclo[3.2.1]octane-2-carboxamide] | 25 | 25 | 50 |  |  |  | 12.5 µM | 1.6 | 16 | 1.6 | 16 | 100 µM | > 100 µM | 
7 | O=C(NC1CCNCC1)[C@@H]1CC[C@@H]2CN1C(=O)N2OS(=O)(=O)O [Example 1, (2S,5R)-7-oxo-N-piperidin-4-yl-6-(sulfooxy)-1,6-diazabicyclo[3.2.1]octane-2-carboxamide] | 6.25 | 12.5 | 12.5 |  |  |  | 0.2 µM |  |  |  |  | 3.12 µM | 6.25 µM | 
8 | O=C(O[C@H]1CNC[C@H]1F)[C@@H]1CC[C@@H]2CN1C(=O)N2OS(=O)(=O)O [Example 104] |  |  |  | 38 |  |  |  |  | 24 |  |  |  |  | 
9 | Nc1cccc(NC(=O)[C@@H]2CC[C@@H]3CN2C(=O)N3OS(=O)(=O)O)n1 [Example 74] |  |  |  |  |  |  |  |  | 11 |  | 8 |  |  | 
10 | O=C(OCC1CNCCCO1)[C@@H]1CC[C@@H]2CN1C(=O)N2OS(=O)(=O)O (some centres unmarked) [Example 114] |  |  |  |  |  |  |  |  | 11 |  | 340 |  |  | 
11 | O=C(NCC1CCCN1)[C@@H]1CC[C@@H]2CN1C(=O)N2OS(=O)(=O)O (some centres unmarked) [Example 38] |  |  |  |  |  |  |  |  | 120 |  | 250 |  |  | 
12 | CC(=O)Oc1ccc(C(=O)NCC(CNC(=O)c2ccc(OC(C)=O)c(OC(C)=O)c2)OC(=O)[C@@H]2CC[C@@H]3CN2C(=O)N3OS(=O)(=O)O)cc1OC(C)=O [Example 117] |  |  |  |  |  |  |  |  | 12 |  | 61 |  |  | 
